Test results published in patent publication US5583000A, “Protease-binding compounds and methods of use” (priority 1993, dated 1996).
Values after ≈ are worked out from the molar mass of the structure shown. Like-named read-outs stand apart in the source and are kept apart here.

What was measured:
HIV-1 protease = HIV-1 protease (Human immunodeficiency virus type 1 group M subtype B, UniProt P03369); assay: biochemical; details: for IC50: HIV-1 Protease IC50 (μM) 1M NaCl
HIV-2 protease = target: T1, HIV-2 protease (Human immunodeficiency virus type 2 subtype A, UniProt P04584); assay: biochemical; details: 1M NaCl
T1 construct: the coding region of the 99-amino acid protease; made in house; host or cells: Saccharomyces cerevisiae strain AB110, plasmid pHIV2PR115
T1 sequence (P04584 514-612 limits assumed): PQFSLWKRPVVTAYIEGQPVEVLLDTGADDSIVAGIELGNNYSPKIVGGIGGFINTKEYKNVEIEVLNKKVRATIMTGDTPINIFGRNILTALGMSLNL
Method: The decapeptide was synthesized by conventional solid-state methods. Reactions were carried out and fractionated by HPLC. Conversion of the decapeptide to the two pentapeptides was quantitated by integration of the peak areas and comparison to product standard curves.
Enzymatic Inhibition. […] Each data point was done in triplicate and initial enzyme rates were fit to the Michaelis-Menten equation using a nonlinear regression program ("Enzfitter" from Biosoft).

Method for in vitro: Cytotoxicity. The MTT assay was performed as follows:
The cells were seeded in 96-well plates and grown overnight to near 50% confluency. A serial dilution (1 to 500 μM) of each compound in culture media was prepared and 250 μL/well was added in duplicate. The cells were allowed to grow for various periods of time (6, 24, 48 hours) and any precipitation of compounds in the wells was noted. The assay was performed by removing 200 μL of the culture media and adding 25 μL of MTT solution (2 mg/mL in phosphate buffered saline (PBS)). This was incubated for 4 hours at 37° C. and live cells began to turn purple while the solution remained yellow. To quench the reaction and solubilize the reaction product, 160 μL of acidified isopropanol (4 mL 1N HCl for 96 mL alcohol) were added and the resulting mixture was mixed vigorously to dissolve purple crystals. Absorbance was determined at 550-570 nm on an ELISA plate reader within 0.5-2 hours. […] To obtain the LD50 values for each compound, the concentration at which the absorbance is haft of that for the untreated cells was determined.

Structure (SMILES) | solubility (Solubility) | CC50 at 6 h (in vitro) | IC50 (HIV-1 protease; 1M NaCl) | HIV-1 Protease Therapeutic Index (LD50 /IC50) (HIV-1 protease; LD50/IC50) | IC50 (HIV-2 protease) | solubility (physchem) | HIV-1 Protease Therapeutic Index (LD50 /IC50) (HIV-1 protease) | IC50 (HIV-1 protease) | CC50 at 4 h (in vitro)
O=C(c1ccc(N2CCC(O)(c3ccc(Cl)cc3)CC2)cc1)C1CC1 [UCSF81] | > 250 µM | > 250 µM | 200 µM | > 1.25 | 1000 µM |  |  |  | 
C=C(CCCN1CCC(O)(c2ccc(Cl)cc2)CC1)c1ccc(F)cc1 [UCSF37, 1-[4-(4-chlorophenyl)-4-hydroxypiperidinyl]-4-(4-fluorophenyl)-4-pentene] |  | 50 µM |  |  | 34 µM | < 200 µM | 1.3 | 39 µM | 
OC1(CCCCc2ccccc2)CCC(O)(c2ccc(Cl)cc2)CC1 (stereo not shown) [UCSF54] | > 500 µM | 190 µM | 2500 µM | < 0.08 |  |  |  |  | 
C=C(CCCC1(O)CCC(O)(c2ccc(Cl)cc2)CC1)c1ccccc1 (stereo not shown) [UCSF41, 4-(4'-phenyl-4-pentenyl)-1-(p-chlorophenyl)-1,4-cyclohexanediol] | > 500 µM | 90 µM | 160 µM | 0.6 |  |  |  |  | 
CSCC(O)(CCCN1CCC(O)(c2ccc(Cl)cc2)CC1)c1ccc(F)cc1 (stereo not shown) [UCSF39, 5-[4-(4-chlorophenyl)-4-hydroxypiperidinyl]-2-(4-fluorophenyl)pentan-2-ol-1-methylsulfide] |  | 90 µM |  |  | 135 µM | > 500 µM | 1.2 | 75 µM | 
OC1(c2ccc(Cl)cc2)CCN(CCCN(Cc2ccccc2)Cc2ccc(-c3ccccc3)cc2)CC1 [UCSF63] |  | 25 µM |  |  | 15 µM | > 500 µM |  | 18 µM | 
OC1(c2ccc(Cl)cc2)CCN(CCCC2(c3ccc(F)cc3)SCCCCS2)CC1 [UCSF23, (1,4-butanethioacetal)-4-[4-(p-chlorophenyl)-4-hydroxypiperidinyl]-4'-fluorobutyrophenone] |  | 25 µM |  |  | 71 µM | > 250 µM | 1.25 | 20 µM | 
OC1(c2ccc(Cl)cc2)CCN(CCCC2(c3ccc(F)cc3)SCc3ccc(cc3)CS2)CC1 [UCSF22, (1,4-benzenedimethanethioacetal)-4-[4-(p-chlorophenyl)-4-hydroxypiperidinyl]-4'-fluorobutyrophenone] |  | > 500 µM |  |  | 54 µM | < 50 µM | 5(0.5) | 100 µM | 
OC1(c2ccc(Cl)cc2)CCN(CCCC2(c3ccccc3)OCCO2)CC1 [UCSF49] |  | 120 µM |  |  | 180 µM | < 50 µM | 1.2 | 100 µM | 
OC1(c2ccc(Cl)cc2)CCN(CCCC2(c3ccc(F)cc3)SCc3ccccc3CS2)CC1 [UCSF18, (1,2-benzene-dimethanethioacetal)-4-[4-(p-chlorophenyl)-4-hydroxypiperidinyl]-4'-fluorobutyrophenone] |  | 35 µM |  |  | 10 µM | > 250 µM | 1.4 | 25 µM | 
OC1(c2ccc(Cl)cc2)CCN(CCCC(O)(c2ccccc2)c2cccc(-c3ccccc3)c2)CC1 (stereo not shown) [UCSF57, 4-(4-(p-chlorophenyl)-4-hydroxypiperidinyl)-1-phenyl-1-(3'-phenylphenyl)-butan-1-ol] |  |  |  |  | 14 µM | < 500 µM |  | 10 µM | 25 µM
OC(CC#CC1(O)CCN(Cc2ccccc2)CC1)c1ccccc1 (stereo not shown) [UCSF72] | > 500 µM | 260 µM | 750 µM |  |  |  |  |  | 
OCCNN=C(CCCN1CCC(O)(c2ccc(Cl)cc2)CC1)c1ccc(F)cc1 [UCSF14] |  | 500 µM |  |  | 90 µM | 500 µM (≈ 217 µg/mL) | 10 | 50 µM | 
C[C@@H]1SC(CCCN2CCC(O)(c3ccc(Cl)cc3)CC2)(c2ccc(F)cc2)S[C@@H]1C (relative stereo) [UCSF64] |  | 25 µM |  |  | 29 µM | < 50 µM |  | 16 µM | 
O=C(CCCN1CCC(CO)(c2ccccc2)CC1)c1ccc(F)cc1 [UCSF60] |  |  |  |  | > 2500 µM | > 500 µM | > 0.2 | 2500 µM | > 500 µM
O=C(CCCN1CCC(O)(c2ccc(Cl)cc2)CC1)c1cccc(-c2ccccc2)c1 [UCSF52, 4-(4-(p-chlorophenyl)-4-hydroxypiperidinyl)-3'-phenylbutyrophenone] |  | 10 µM |  |  | 19 µM | < 250 µM | 0.5 | 20 µM | 
O=C(CCCN1CCC(O)(c2ccc(Cl)cc2)CC1)c1ccccc1-c1ccccc1 [UCSF51, 4-(4-(p-chlorophenyl)-4-hydroxypiperidinyl)-2'-phenylbutyrophenone] |  | 45 µM |  |  | 68 µM | < 250 µM |  | 40 µM | 
CC[C@@H]1CSC(CCCN2CCC(O)(c3ccc(Cl)cc3)CC2)(c2ccc(F)cc2)O1 (stereo partly shown) [UCSF79] |  | 35 µM |  |  | 68 µM | > 250 µM |  | 30 µM | 

Structure (SMILES) | solubility (Solubility) | CC50 at 6 h (in vitro) | IC50 (HIV-1 protease; 1M NaCl) | HIV-1 Protease Therapeutic Index (LD50 /IC50) (HIV-1 protease; LD50/IC50) | IC50 (HIV-2 protease) | solubility (physchem) | HIV-1 Protease Therapeutic Index (LD50 /IC50) (HIV-1 protease) | IC50 (HIV-1 protease) | CC50 at 4 h (in vitro)
OC1(c2ccc(Cl)cc2)CCN(CCCC2(c3ccc(F)cc3)SCc3cccc(c3)CS2)CC1 [UCSF21, (1,3-benzenedimethanethioacetal)-4-[4-(p-chlorophenyl)-4-hydroxypiperidinyl]-4'-fluorobutyrophenone] |  | > 500 µM |  |  | 75 µM | < 250 µM | > 20(10) | 25 µM | 
C[C@@H]1SC(CCCN2CCC(O)(c3ccc(Cl)cc3)CC2)(c2ccc(F)cc2)S[C@H]1C (relative stereo) [UCSF12, (trans-2,3-butanethioacetal)-4-[4-(p-chlorophenyl)-4-hydroxypiperidinyl]-4'-fluorobutyro-phenone] |  | 35 µM |  |  | 50 µM | < 250 µM | 0.5 | 350 µM | 
Cc1ccc(C(=O)CCC(c2ccccc2)N2CCC(O)(c3ccc(Cl)cc3)CC2)cc1 (stereo not shown) [UCSF44, 4-[4-(p-chlorophenyl)-4-hydroxypiperidinyl]-4-phenyl-4'-methylbutyrophenone] |  | 200 µM |  |  | 43 µM | < 25 µM | 5.7(0.7) | 35 µM | 
OC1(c2ccc(Cl)cc2)CCN(CCCN(CCc2ccccc2)Cc2ccccc2)CC1 [UCSF61, 3-[4-(4-chlorophenyl)-4-hydroxypiperidinyl]-N-benzyl-N-(2-phenyl-ethyl)-propylamine] |  | 40 µM |  |  | 230 µM | < 500 µM | 0.2-0.4 | 220 µM | 
CC[C@H]1CSC(CCCN2CCC(O)(c3ccc(Cl)cc3)CC2)(c2ccc(F)cc2)O1 (stereo partly shown) [UCSF80] |  | 40 µM |  |  | 58 µM | > 250 µM |  | 33 µM | 
OC1(c2ccc(Cl)cc2)CCN(CCCC2(c3ccc(F)cc3)OCCS2)CC1 (stereo not shown) [UCSF78] |  | 35 µM |  |  | 167 µM | > 500 µM |  | 39 µM | 
CC(CCc1ccccc1)N1CCC(O)(c2ccc(Cl)cc2)CC1 (stereo not shown) [UCSF73] |  | 360 µM |  |  | 188 µM | < 500 µM |  | 100 µM | 
OC1(c2ccc(Cl)cc2)CCN(CCCC2(c3cccc(-c4ccccc4)c3)SCCS2)CC1 [UCSF59] |  |  |  |  | 7 µM | < 500 µM |  | 8 µM | 45 µM
OC1(c2ccccc2)CCN(CCCC2(c3ccccc3)OCCO2)CC1 [UCSF30, (1,2-ethyloxoacetal)-4-(4-phenyl-4-hydroxypiperidinyl)butyrophenone] |  | > 250 µM |  |  | 500 µM | > 250 µM | 1 | 265 µM | 
O=C(CCC[N+]1([O-])CCC(O)(c2ccc(Cl)cc2)CC1)c1cccc(-c2ccccc2)c1 (stereo not shown) [UCSF67] |  | > 25 µM |  |  | 10 µM | > 25 µM | 0.3 | 80 µM | 
OC1(c2ccc(Cl)cc2)CCN(CCN(Cc2ccccc2)Cc2ccccc2)CC1 [UCSF46, 2-[4-(4-chlorophenyl)-4-hydroxypiperidinyl]-(N,N-dibenzyl)ethylamine] |  | 20 µM |  |  | 34 µM | > 500 µM | 0.7 | 30 µM | 
C#CCC(CC#C)(CCN1CCC(O)(c2ccc(Cl)cc2)CC1)C(=O)c1ccc(F)cc1 [UCSF69] |  | 220 µM |  |  | 60 µM | < 100 µM |  | 50 µM | 
O=C(Cc1ccccc1)N(CCCN1CCC(O)(c2ccc(Cl)cc2)CC1)Cc1ccccc1 [UCSF66] |  | 25 µM |  |  | 48 µM | < 250 µM | 0.3 | 70 µM | 
OC(CC=CC1(O)CCN(Cc2ccccc2)CC1)c1ccccc1 (stereo not shown) [UCSF76] | > 500 µM | 440 µM | 1650 µM |  |  |  |  |  | 
C#CCC(CCN1CCC(O)(c2ccc(Cl)cc2)CC1)C(=O)c1ccc(F)cc1 (stereo not shown) [UCSF68] |  | 100 µM |  |  | 48 µM | < 500 µM |  | 105 µM | 
O=C(CCCC1(O)CCC(O)(c2ccc(Cl)cc2)CC1)c1ccc(F)cc1 (stereo not shown) [UCSF65, 4-(4'-p-fluorophenyl-4'-butanone)-1-p-chlorophenyl-1,4-cyclohexanediol] | < 100 µM | 250 µM |  |  |  |  |  |  | 
CC(CCN1CCC(O)(c2ccc(Cl)cc2)CC1)C(=O)c1ccc(F)cc1 (stereo not shown) [UCSF50] |  | 90 µM |  |  | 126 µM | > 500 µM |  | 100 µM | 
